In ChEMBL document CHEMBL5214939, “Design, synthesis and biological evaluations of novel farnesoid X receptor (FXR) agonists” (Bioorg Med Chem Lett, 2022):
Blank lines part the entries; values can stand above or below the compound they belong to. Active and inactive are the calls of the source. The calls are words filed in the database; no cut-off is given here.

Assays:
Bile acid receptor = molecular target: T1, Bile acid receptor (Homo sapiens, UniProt Q96RI1); experiment: Agonist activity at FXR in HEK293T cells assessed as transcriptional activity by measuring […] by luciferase reporter assay; assay type: cell-based
T1 sequence (Q96RI1 whole entry): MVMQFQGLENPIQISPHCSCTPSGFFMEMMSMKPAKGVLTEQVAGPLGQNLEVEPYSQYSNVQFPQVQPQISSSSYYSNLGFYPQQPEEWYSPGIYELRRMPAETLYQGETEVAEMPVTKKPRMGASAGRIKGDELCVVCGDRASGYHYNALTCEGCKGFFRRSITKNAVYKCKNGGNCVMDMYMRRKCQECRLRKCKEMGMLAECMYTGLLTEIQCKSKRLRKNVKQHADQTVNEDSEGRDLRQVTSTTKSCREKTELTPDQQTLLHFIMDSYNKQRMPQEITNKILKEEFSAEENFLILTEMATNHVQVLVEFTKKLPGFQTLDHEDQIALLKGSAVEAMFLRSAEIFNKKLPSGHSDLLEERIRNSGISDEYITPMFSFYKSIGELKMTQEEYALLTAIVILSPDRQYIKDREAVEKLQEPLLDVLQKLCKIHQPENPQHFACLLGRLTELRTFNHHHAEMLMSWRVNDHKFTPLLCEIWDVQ

[1] = AUC (0 to t) in mouse at 5 mg/kg, iv; assay type: ADME, organism-based; set-up: dose 5 mg/kg, route iv; conditions: in vivo
[2] = AUC (0 to t) in mouse at 20 mg/kg, po; assay type: ADME, organism-based; set-up: dose 20 mg/kg, route po; conditions: in vivo
[3] = AUCinfinity in mouse at 20 mg/kg, po; assay type: ADME, organism-based; set-up: time infinity, dose 20 mg/kg, route po; conditions: in vivo
[4] = AUCinfinity in mouse at 5 mg/kg, iv; assay type: ADME, organism-based; set-up: time infinity, dose 5 mg/kg, route iv; conditions: in vivo
[5] = Tmax in mouse at 20 mg/kg, po; assay type: ADME, organism-based; conditions: in vivo
[6] = Cmax in mouse at 20 mg/kg, po; assay type: ADME, organism-based; set-up: dose 20 mg/kg, route po; conditions: in vivo
[7] = Oral bioavailability in mouse at 20 mg/kg; assay type: ADME, organism-based; conditions: in vivo
[8] = Half life in mouse at 20 mg/kg, po; assay type: ADME, organism-based; conditions: in vivo
[9] = Clearance in mouse at 20 mg/kg, po or 5 mg/kg, iv; assay type: ADME, organism-based; conditions: in vivo
Mus musculus [10] = species: Mus musculus; experiment: Protection against Con-A induced autoimmune hepatitis mouse model assessed as reduction in ALT level; assay type: functional, organism-based
Mus musculus [11] = species: Mus musculus; experiment: Protection against Con-A induced autoimmune hepatitis mouse model assessed as reduction in AST level; assay type: functional, organism-based
[12] = Half life in mouse at 100 mg/kg, po; assay type: ADME, organism-based; conditions: in vivo
[13] = Clearance in mouse at 100 mg/kg, po or 5 mg/kg, iv; assay type: ADME, organism-based; conditions: in vivo
[14] = Oral bioavailability in mouse at 100 mg/kg; assay type: ADME, organism-based; conditions: in vivo
[15] = Cmax in mouse at 100 mg/kg, po; assay type: ADME, organism-based; set-up: dose 100 mg/kg, route po; conditions: in vivo
[16] = Tmax in mouse at 100 mg/kg, po; assay type: ADME, organism-based; conditions: in vivo
[17] = AUC (0 to t) in mouse at 100 mg/kg, po; assay type: ADME, organism-based; set-up: dose 100 mg/kg, route po; conditions: in vivo
[18] = AUCinfinity in mouse at 100 mg/kg, po; assay type: ADME, organism-based; set-up: time infinity, dose 100 mg/kg, route po; conditions: in vivo

SMILES: CC(C)c1onc(-c2c(Cl)cccc2Cl)c1COc1ccc(/C=C/c2cccc(C(=O)O)c2)c(Cl)c1
AUC(0-t) [1]: 3140 ng·h/mL
AUC(0-t) [2]: 85200 ng·h/mL
AUC [3]: 85283 ng·h/mL
AUC [4]: 3162 ng·h/mL
Tmax [5]: 0.5 h
Cmax [6]: 4787 ng/mL
F [7]: 42.81%
t1/2 [8]: 1.53 h
CL [9]: 26.3 mL/min/kg

SMILES: CC(C)c1snc(-c2c(Cl)cccc2Cl)c1COc1ccc(N(C)Cc2ccc(C(=O)O)cc2)c(C(F)(F)F)n1
Activity (Mus musculus [10]): Active
Activity (Mus musculus [11]): Active
EC50 (Bile acid receptor): 350 nM

SMILES: CN(Cc1cccc(C(=O)NO)c1)c1ccc(OCc2c(-c3c(Cl)cccc3Cl)nsc2C2CC2)nc1C(F)(F)F
EC50 (Bile acid receptor): 1090 nM

SMILES: CN(Cc1ccc(C(=O)O)cc1)c1ccc(OCc2c(-c3c(Cl)cccc3Cl)nsc2C2CC2)nc1C(F)(F)F
Activity (Mus musculus [10]): Active
EC50 (Bile acid receptor): 310 nM

SMILES: CC(C)c1snc(-c2c(Cl)cccc2Cl)c1COc1ccc(N(C)Cc2ccc(C(=O)O)s2)c(C(F)(F)F)n1
EC50 (Bile acid receptor): 510 nM

Second part, led by results:

EC50 (Bile acid receptor): > 30000 nM
SMILES: CN(Cc1ccc(C(=O)NO)cc1)c1ccc(OCc2c(-c3c(Cl)cccc3Cl)nsc2C2CC2)nc1C(F)(F)F

EC50 (Bile acid receptor): > 30000 nM
SMILES: CC(C)c1snc(-c2c(Cl)cccc2Cl)c1COc1ccc(N(C)CC2CCCC(C(=O)O)C2)c(C(F)(F)F)n1 (centres undefined)

EC50 (Bile acid receptor): 2160 nM
SMILES: CCN(Cc1ccc(C(=O)O)cc1)c1ccc(OCc2c(-c3c(Cl)cccc3Cl)nsc2C(C)C)nc1C(F)(F)F

EC50 (Bile acid receptor): 570 nM
SMILES: CC(C)c1snc(-c2c(Cl)cccc2Cl)c1COc1ccc(/C=C/c2cccc(C(=O)O)c2)c(Cl)c1

half-life [12]: 2.6 h
AUC(0-t) [1]: 5760 ng·h/mL
CL [13]: 14.3 mL/min/kg
AUC [4]: 5822 ng·h/mL
F [14]: 73%
Cmax [15]: 40200 ng/mL
Tmax [16]: 0.5 h
AUC(0-t) [17]: 5370 ng·h/mL
EC50 (Bile acid receptor): 270 nM
AUC [18]: 5415 ng·h/mL
SMILES: CN(Cc1cccc(C(=O)O)c1)c1ccc(OCc2c(-c3c(Cl)cccc3Cl)nsc2C2CC2)nc1C(F)(F)F
Activity (Mus musculus [10]): Active
Activity (Mus musculus [11]): Active

EC50 (Bile acid receptor): 410 nM
SMILES: CN(Cc1ccc(C(=O)O)cc1)c1ccc(OCc2c(-c3c(Cl)cccc3Cl)nsc2C2CC2)cc1C(F)(F)F
Activity (Mus musculus [10]): Active
